The numbers were not newly measured in US12589095B2, “Unit dosage form for transmucosal drug delivery of an active pharmaceutical ingredient” (Primo Pharmatech LLC, priority 2019, dated 2026), which cites them from elsewhere.

The conditions of one series: known / published value; cited from earlier work.
Regarding `CCCCCCCCCCCC(=O)OCCOCCO` [Diethylene glycol monolaurate], the HLB is given as 5.5.
For `CCCCCCCCCCCCCCCCCC(=O)OCCOCCO` [Diethylene glycol monostearate], the HLB is 4.3.
As to `CCCCCCCC/C=C\CCCCCCCC(=O)OCC(O)CO` (stereo not shown) [Glyceryl monooleate], the HLB is on record as 3.4.
As for `CCCCCCCCCCCCCCCCCC(=O)OCC(O)CO` (stereo not shown) [Glyceryl monostearate (Tegin), Glyceryl monostearate], the HLB is recorded as 4.7.
Turning to `CCCCCCCCCCCCCCCCCC(=O)OCC(O)CO` (stereo not shown) [Glyceryl monostearate], the HLB was 2.1.
For the compound `CCCCCCCC/C=C\CCCCCCCC(=O)O` [Oleic acid], the HLB is 1.0.
On to `CCCCCCCC/C=C\CCCCCCCC(=O)[O-].[K+]` [Potassium oleate], for which the HLB is reported as 18.0.
As for `CCCCCCCC/C=C\CCCCCCCC(=O)[O-].[Na+]` [Sodium oleate], the HLB is on record as 16.9.
For Glyceryl dioleate, the HLB is given as 1.8.
For the compound Polyethylene glycol 400 monolaurate, the HLB was 12.8.
On to “Polyethylene lauryl ether [Polyethylene lauryl ether (Brij 30)]”, for which the HLB is on record as 8.6.
Take “Polyoxyethylene lauryl ether [Polyoxyethylene lauryl ether (G-3705)]”: the HLB is reported as 10.5.
As for “Polyoxyethylene monostearate [Polyoxyethylene monostearate (Myrj 45)]”, the HLB is reported as 10.8.
Polyoxyethylene sorbitol wax derivative: the HLB is listed as 2.0.
As to Sorbitan monolaurate [SPAN 20], the HLB entry was “SPAN 20 (HLB8.6)”.
Consider sorbitan monooleate [Span 80], for which the HLB was 4.3.

The series is the same for the next values; noted with them: known / published value; listed as Oleic Acid; cited from earlier work.
As for `CCCCCCCC/C=C\CCCCCCCC(=O)O` [Oleic acid], the HLB is given as 1.

Still in this series, the particulars now being: known / published value; listed as Sorbitan mono-oleate (Span 80); cited from earlier work.
On to sorbitan monooleate [Span 80], for which the HLB is given as 3.8.

The series is the same for the next values; noted with them: known / published value; listed as Sorbitan monolaurate (Span 20); cited from earlier work.
On to Sorbitan monolaurate [SPAN 20], for which the HLB was 6.1.
